# In patent US20250026752A1, “POSITIVE ALLOSTERIC MODULATORS OF THE MUSCARINIC ACETYLCHOLINE RECEPTOR M4” (Vanderbilt University, priority 2021, published 2025):
# Where two headings read alike, the source gives them in different places.
# Biological target: T1, human mAChR M4 (Homo sapiens, UniProt P08173)
# T1 construct: expressed in transfected cells; host or cells: CHO-K1 (ATCC), stably expressing hM4 and Gqi5
# T1 sequence (P08173 1-479): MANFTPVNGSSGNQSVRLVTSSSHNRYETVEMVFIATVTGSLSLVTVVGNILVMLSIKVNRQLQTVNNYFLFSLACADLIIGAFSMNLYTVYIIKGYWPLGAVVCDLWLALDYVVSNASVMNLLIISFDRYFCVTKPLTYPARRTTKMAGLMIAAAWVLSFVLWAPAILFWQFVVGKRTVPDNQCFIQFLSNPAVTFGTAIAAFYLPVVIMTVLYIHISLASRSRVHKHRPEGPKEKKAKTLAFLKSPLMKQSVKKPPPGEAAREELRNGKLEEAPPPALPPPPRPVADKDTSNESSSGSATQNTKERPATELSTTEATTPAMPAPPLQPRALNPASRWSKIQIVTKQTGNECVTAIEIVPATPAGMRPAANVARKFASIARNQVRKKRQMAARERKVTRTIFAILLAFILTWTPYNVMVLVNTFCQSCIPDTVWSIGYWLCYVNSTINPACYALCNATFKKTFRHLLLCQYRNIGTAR
# Test: mAChR M4 cell-based functional assay: calcium flux (Fluo-4, FDSS), positive allosteric modulator activity on the EC20 acetylcholine response, hM4-Gqi5 CHO-K1 cells
# Design: Emax: dose or concentration left out as unconfirmed
# Details: for Emax at 30 µM: CHO-K1, human M4, % ACh maximum at 30 μM; for EC50: PAM activity on EC20 acetylcholine response, calcium flux
# Summary of the method: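 Potentiation was taken as the concentration-dependent rise in the EC20 acetylcholine calcium response, fitted by a four-parameter logistic with EC20 as baseline. Fluo-4-loaded hM4-Gqi5 CHO-K1 cells received 11-point, threefold-diluted compound before acetylcholine at 144 s; FDSS read at 1 Hz.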
# [1] = human M4, read-out: Human M4 EC50
Emax at 30 µM,EC50 [1],Structure (SMILES),Emax (CHO-K1),"EC50 (Human M4 EC50, human M4)"
35%,810 nM,"Cc1ncc(-c2cnc3c(c2)CN(c2nc(C(F)(F)F)nc4ccc(F)cc24)CC3)s1 [Compound 66, 5-[6-[6-fluoro-2-(trifluoromethyl)quinazolin-4-yl]-7,8-dihydro-5H-1,6-naphthyridin-3-yl]-2-methyl-thiazole]",,
55%,660 nM,"Cc1ccc(-c2cnc3c(c2)CN(c2nc(C(F)(F)F)nc4ccc(F)cc24)CC3)cn1 [Compound 67, 6-fluoro-4-[3-(6-methyl-3-pyridyl)-7,8-dihydro-5H-1,6-naphthyridin-6-yl]-2-(trifluoromethyl)quinazoline]",,
,,"Fc1ccc2ncnc(N3CCc4ncc(-n5cccn5)cc4C3)c2c1 [Compound 68, 6-fluoro-4-(3-pyrazol-1-yl-7,8-dihydro-5H-1,6-naphthyridin-6-yl)quinazoline]",88%,220 nM
71%,120 nM,"Fc1ccc2ncnc(N3CCc4ncc(N5CCC(C(F)(F)F)n6nccc65)cc4C3)c2c1 (stereo not shown) [Compound 69, 6-fluoro-4-[3-[7-(trifluoromethyl)-6,7-dihydro-5H-pyrazolo[1,5-a]pyrimidin-4-yl]-7,8-dihydro-5H-1,6-naphthyridin-6-yl]quinazoline]",,
85%,130 nM,"Cc1nc(N2CCc3ncc(Nc4cccnc4F)cc3C2)c2cc(F)ccc2n1 [Compound 70, 6-(6-fluoro-2-methyl-quinazolin-4-yl)-N-(2-fluoro-3-pyridyl)-7,8-dihydro-5H-1,6-naphthyridin-3-amine]",,
82%,140 nM,"Fc1ncccc1Nc1cnc2c(c1)CN(c1ncnc3ccc(Cl)cc13)CC2 [Compound 71, 6-(6-chloroquinazolin-4-yl)-N-(2-fluoro-3-pyridyl)-7,8-dihydro-5H-1,6-naphthyridin-3-amine]",,
84%,490 nM,"Cc1nc(N2CCc3ncc(Nc4cccnc4F)cc3C2)c2cc(Cl)ccc2n1 [Compound 72, 6-(6-chloro-2-methyl-quinazolin-4-yl)-N-(2-fluoro-3-pyridyl)-7,8-dihydro-5H-1,6-naphthyridin-3-amine]",,
97%,90 nM,"Cc1nc(N2CCc3ncc(N4CCCn5nccc54)cc3C2)c2cc(F)ccc2n1 [Compound 73, 4-[3-(6,7-dihydro-5H-pyrazolo[1,5-a]pyrimidin-4-yl)-7,8-dihydro-5H-1,6-naphthyridin-6-yl]-6-fluoro-2-methyl-quinazoline]",,
82%,10 nM,"Fc1ccc2ncnc(N3CCc4ncc(N5CCCn6nccc65)cc4C3)c2c1 [Compound 74, 4-[3-(6,7-dihydro-5H-pyrazolo[1,5-a]pyrimidin-4-yl)-7,8-dihydro-5H-1,6-naphthyridin-6-yl]-6-fluoro-quinazoline]",,
100%,30 nM,"Cn1nccc1Nc1cnc2c(c1)CN(c1ncnc3ccc(F)cc13)CC2 [Compound 75, 6-(6-fluoroquinazolin-4-yl)-N-(2-methylpyrazol-3-yl)-7,8-dihydro-5H-1,6-naphthyridin-3-amine]",,
98%,30 nM,"Fc1ccc2ncnc(N3CCc4ncc(N5CCOc6ncccc65)cc4C3)c2c1 [Compound 76, 1-[6-(6-fluoroquinazolin-4-yl)-7,8-dihydro-5H-1,6-naphthyridin-3-yl]-2,3-dihydropyrido[2,3-b][1,4]oxazine]",,
127%,70 nM,"COc1ccc2ncnc(N3CCc4ncc(N5CCCn6nccc65)cc4C3)c2c1 [Compound 77, 4-[3-(6,7-dihydro-5H-pyrazolo[1,5-a]pyrimidin-4-yl)-7,8-dihydro-5H-1,6-naphthyridin-6-yl]-6-methoxy-quinazoline]",,
129%,30 nM,"Cc1ccc2ncnc(N3CCc4ncc(N5CCCn6nccc65)cc4C3)c2c1 [Compound 78, 4-[3-(6,7-dihydro-5H-pyrazolo[1,5-a]pyrimidin-4-yl)-7,8-dihydro-5H-1,6-naphthyridin-6-yl]-6-methyl-quinazoline]",,
105%,250 nM,"COc1ccc2ncnc(N3CCc4ncc(N5CCOc6ncccc65)cc4C3)c2c1 [Compound 79, 1-[6-(6-methoxyquinazolin-4-yl)-7,8-dihydro-5H-1,6-naphthyridin-3-yl]-2,3-dihydropyrido[2,3-b][1,4]oxazine]",,
98%,500 nM,"COc1ccc2ncnc(N3CCc4ncc(Nc5ccnn5C)cc4C3)c2c1 [Compound 80, 6-(6-methoxyquinazolin-4-yl)-N-(2-methylpyrazol-3-yl)-7,8-dihydro-5H-1,6-naphthyridin-3-amine]",,
95%,460 nM,"COc1ccc2ncnc(N3CCc4ncc(Nc5cccnc5F)cc4C3)c2c1 [Compound 81, N-(2-fluoro-3-pyridyl)-6-(6-methoxyquinazolin-4-yl)-7,8-dihydro-5H-1,6-naphthyridin-3-amine]",,
104%,70 nM,"Fc1ccc2ncnc(N3CCc4ncc(Nc5cccnc5F)cc4C3)c2c1 [Compound 82, N-(2-fluoro-3-pyridyl)-6-(6-fluoroquinazolin-4-yl)-7,8-dihydro-5H-1,6-naphthyridin-3-amine]",,
108%,20 nM,"Clc1ccc2ncnc(N3CCc4ncc(N5CCCn6nccc65)cc4C3)c2c1 [Compound 83, 6-chloro-4-[3-(6,7-dihydro-5H-pyrazolo[1,5-a]pyrimidin-4-yl)-7,8-dihydro-5H-1,6-naphthyridin-6-yl]quinazoline]",,
114%,230 nM,Cc1nc(N2CCc3ncc(N4CCCn5nccc54)cc3C2)c2cc(Cl)ccc2n1 [Compound 84],,
85%,30 nM,"Cc1nc(N2CCc3ncc(N4CCOc5ncccc54)cc3C2)c2cc(F)ccc2n1 [Compound 85, 1-[6-(6-fluoro-2-methyl-quinazolin-4-yl)-7,8-dihydro-5H-1,6-naphthyridin-3-yl]-2,3-dihydropyrido[2,3-b][1,4]oxazine]",,
91%,30 nM,"Cc1nc(N2CCc3ncc(Nc4ccnn4C)cc3C2)c2cc(F)ccc2n1 [Compound 86, 6-(6-fluoro-2-methyl-quinazolin-4-yl)-N-(2-methylpyrazol-3-yl)-7,8-dihydro-5H-1,6-naphthyridin-3-amine]",,
110%,190 nM,"Fc1ccc2nc(Cl)nc(N3CCc4ncc(N5CCCn6nccc65)cc4C3)c2c1 [Compound 87, 2-chloro-4-[3-(6,7-dihydro-5H-pyrazolo[1,5-a]pyrimidin-4-yl)-7,8-dihydro-5H-1,6-naphthyridin-6-yl]-6-fluoro-quinazoline]",,
103%,1070 nM,"Fc1ncccc1Nc1cnc2c(c1)CN(c1nc(Cl)nc3ccc(Cl)cc13)CC2 [Compound 88, 6-(2,6-dichloroquinazolin-4-yl)-N-(2-fluoro-3-pyridyl)-7,8-dihydro-5H-1,6-naphthyridin-3-amine]",,
109%,250 nM,"Clc1ccc2nc(Cl)nc(N3CCc4ncc(N5CCCn6nccc65)cc4C3)c2c1 [Compound 89, 2,6-dichloro-4-[3-(6,7-dihydro-5H-pyrazolo[1,5-a]pyrimidin-4-yl)-7,8-dihydro-5H-1,6-naphthyridin-6-yl]quinazoline]",,
76%,1360 nM,"COc1ccc2ncnc(N3CCc4ncc(N5CCC(C(F)(F)F)n6nccc65)cc4C3)c2c1 (stereo not shown) [Compound 90, 6-methoxy-4-[3-[7-(trifluoromethyl)-6,7-dihydro-5H-pyrazolo[1,5-a]pyrimidin-4-yl]-7,8-dihydro-5H-1,6-naphthyridin-6-yl]quinazoline]",,
116%,130 nM,"Cc1ccc2ncnc(N3CCc4ncc(N5CCC(C(F)(F)F)n6nccc65)cc4C3)c2c1 (stereo not shown) [Compound 91, 6-methyl-4-[3-[7-(trifluoromethyl)-6,7-dihydro-5H-pyrazolo[1,5-a]pyrimidin-4-yl]-7,8-dihydro-5H-1,6-naphthyridin-6-yl]quinazoline]",,
122%,120 nM,"Cc1ccc2ncnc(N3CCc4ncc(N5CCOc6ncccc65)cc4C3)c2c1 [Compound 92, 1-[6-(6-methylquinazolin-4-yl)-7,8-dihydro-5H-1,6-naphthyridin-3-yl]-2,3-dihydropyrido[2,3-b][1,4]oxazine]",,
109%,50 nM,"Fc1cc2ncnc(N3CCc4ncc(N5CCCn6nccc65)cc4C3)c2cc1F [Compound 93, 4-[3-(6,7-dihydro-5H-pyrazolo[1,5-a]pyrimidin-4-yl)-7,8-dihydro-5H-1,6-naphthyridin-6-yl]-6,7-difluoro-quinazoline]",,
88%,130 nM,"Clc1nc(N2CCc3ncc(N4CCCn5nccc54)cc3C2)c2cccnc2n1 [Compound 94, 2-chloro-4-[3-(6,7-dihydro-5H-pyrazolo[1,5-a]pyrimidin-4-yl)-7,8-dihydro-5H-1,6-naphthyridin-6-yl]pyrido[2,3-d]pyrimidine]",,
